pIC50: −log10 of the molar value.
How the values were obtained:
HEK-293 cells = test: HEK-293 cytotoxicity detection (CellTiter-Glo); format: cell-based; conditions: Homo sapiens, 72 h, 72 h incubation, CellTiter-Glo luminescence, read-out: HEK293
Description: HEK-293 cells were treated with compounds diluted in 0.2% DMSO, dilution was done according to the following protocol: (1) making 500× stock solution in DMSO from 5 mM by 4-fold dilution, total 8 doses were included; (2) making 2× solution in cell culture medium by transferring 0.5 ul 500× stock solution into 125 ul medium; (3) adding 50 ul of 2× solution to cells for incubation of 72 h.
25 μl of the CellTiter-Glo®Reagent [(Promega)—Cat No. G7572] was added to each well in the 96-well plate. The contents were mixed for 2 minutes on an orbital shaker to induce cell lysis. The plate was then allowed to incubate at room temperature for 10 minutes to stabilize luminescent signal. Luminescence was recorded on BMG PheraStar with luminescence protocol.
The inhibition percentage of the compound was calculated by the following equation: Inhibition percentage of Compound=100−100×(Signal-low control)/(High control-low control), wherein signal=each test compound group
High control=Cell group with added DMSO and without compound, indicating cells proliferation with no inhibition;
Imax is the maximum percentage of inhibition.
The IC50 value of a compound can be obtained by fitting the following equation
(§1) Wherein, X and Y are known values, and IC50, Hillslope, Top and Bottom are the parameters obtained by fitting with software. Y is the inhibition percentage (calculated from the equation), X is the concentration of the compound; IC50 is the concentration of the compound when the 50% inhibition is reached. The smaller the IC50 value is, the stronger the inhibitory ability of the compound is. Vice versa, the higher the IC50 value is, the weaker the ability the inhibitory ability of the compound is; Hillslope represents the slope of the fitted curve, generally around 1*; Bottom represents the minimum value of the curve obtained by data fitting, which is generally 0%±20%; Top represents the maximum value of the curve obtained by data fitting, which is generally 100%±20%. The experimental data were fitted by calculating and analyzing with Dotmatics data analysis software.

BTK = BTK (Homo sapiens, UniProt Q06187); test: BTK cell degradation in TMD-8 cells, HTRF assay; format: cell-based; set-up: endogenous in cells; host or cells: TMD-8 cells; conditions: 6 h treatment, IC50 (DC50) of BTK degradation
Description: TMD-8 cells were treated with compounds diluted in 0.2% DMSO, dilution was done according to the following protocol: (1) making 500× stock solution in DMSO from 1 mM by 6-fold dilution, total 8 doses were included; (2) making 2× solution in cell culture medium by transferring 0.5 μl 500× stock solution into 125 μl medium; (3) adding 15 μl of 2× solution to cells for incubation of 6 h.
After 6 h treatment, 10 μl 14×lysis buffer was added to each well; the plate was sealed and incubated for 30 min at room temperature on a plate shaker; Once the cells was lysed, 16 μL of cell lysate were transferred to a PE 384-well HTRF detection plate; 4 μL of pre-mixed HTRF antibodies were added to each well; the plate was covered with a plate sealer, and then spinned at 1000 rpm for 1 min, then incubated overnight at room temperature; the results were read on BMG PheraStar with HTRF protocol (337 nm-665 nm-620 nm).
The inhibition (degradation) percentage of the compound was calculated by the following equation: Inhibition percentage of Compound=100−100×(Signal-low control)/(High control-low control), wherein signal=each test compound group
High control=Cell group with added DMSO and without compound, indicating microplate readings without BTK degradation;
Dmax is the maximum percentage of inhibition (degradation).
The IC50 (DC50) value of a compound can be obtained by fitting the following equation
Y=Bottom+(TOP−Bottom)/(1+((IC50/X)^hillslope))
as §1, with “wherein,” for “Wherein,”

Sequence of BTK (Q06187 whole entry): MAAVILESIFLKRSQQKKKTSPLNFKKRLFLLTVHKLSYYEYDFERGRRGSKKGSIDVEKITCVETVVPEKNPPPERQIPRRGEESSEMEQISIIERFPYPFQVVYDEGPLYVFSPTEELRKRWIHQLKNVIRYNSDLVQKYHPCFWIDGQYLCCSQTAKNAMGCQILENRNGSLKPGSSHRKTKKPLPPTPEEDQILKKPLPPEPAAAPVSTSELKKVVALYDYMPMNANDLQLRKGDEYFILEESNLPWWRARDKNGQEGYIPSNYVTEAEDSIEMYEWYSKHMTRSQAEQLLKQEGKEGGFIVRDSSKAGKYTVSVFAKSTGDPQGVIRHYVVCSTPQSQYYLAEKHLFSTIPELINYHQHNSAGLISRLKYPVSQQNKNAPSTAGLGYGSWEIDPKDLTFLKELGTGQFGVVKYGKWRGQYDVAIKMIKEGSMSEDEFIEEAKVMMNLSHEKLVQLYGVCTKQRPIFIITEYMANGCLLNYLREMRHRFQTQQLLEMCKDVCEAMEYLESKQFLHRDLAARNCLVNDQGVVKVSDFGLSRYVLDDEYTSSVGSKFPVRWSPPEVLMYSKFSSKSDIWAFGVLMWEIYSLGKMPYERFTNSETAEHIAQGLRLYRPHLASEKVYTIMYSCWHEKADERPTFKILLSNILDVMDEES

Row | DC50 (BTK) [nM] | SMILES | pIC50 (HEK-293 cells)
1 | 1.26 | NC(=O)c1c(-c2ccc(Oc3ccccc3)cc2)nn2c1Nc1ccc(NC(=O)C3CCN(CC4CCN(c5ccc6c(c5)C(=O)N(C5CCC(=O)NC5=O)C6=O)CC4)CC3)cc1CC2 (centres unmarked) [Example A4, 7-(1-((1-(2-(2,6-dioxopiperidin-3-yl)-1,3-dioxoisoindolin-5-yl)piperidin-4-yl)methyl)piperidine-4-carboxamido)-2-(4-phenoxyphenyl)-9,10-dihydro-4H-benzo[d]pyrazolo[1,5-a][1,3]diazepine-3-carboxamide] | 7.11
2 | 2.97 | NC(=O)c1c(-c2ccc(Oc3ccccc3)cc2)nn2c1Nc1ccc(NC3CCN(c4ccc5c(c4)C(=O)N(C4CCC(=O)NC4=O)C5=O)CC3)cc1CC2 (centres unmarked) [Example A8, 7-((1-(2-(2,6-dioxopiperidin-3-yl)-1,3-dioxoisoindolin-5-yl)piperidin-4-yl)amino)-2-(4-phenoxyphenyl)-9,10-dihydro-4H-benzo[d]pyrazolo[1,5-a][1,3]diazepine-3-carboxamide] | 6.55
3 | 60.1 | NC(=O)c1c(-c2ccc(C3(Nc4cc(C(F)(F)F)ccn4)CC3)cc2)nn2c1Nc1ccc(N3CCN(CC4CCN(c5ccc(N6CCC(=O)NC6=O)cc5)CC4)CC3)cc1CC2 [Example C16, 7-(4-((1-(4-(2,4-dioxotetrahydropyrimidin-1(2H)-yl)phenyl)piperidin-4-yl)methyl)piperazin-1-yl)-2-(4-(1-((4-(trifluoromethyl)pyridin-2-yl)amino)cyclopropyl)phenyl)-9,10-dihydro-4H-benzo[d]pyrazolo[1,5-a][1,3]diazepine-3-carboxamide] | < 5.00
4 | 29.4 | COc1c(F)c(F)c(F)c(F)c1C(=O)NCc1ccc(-c2nn3c(c2C(N)=O)Nc2ccc(N4CCN(CC5CCN(c6ccc(N7CCC(=O)NC7=O)cc6)CC5)CC4)cc2CC3)cc1C [Example C43, 7-(4-((1-(4-(2,4-dioxotetrahydropyrimidin-1(2H)-yl)phenyl)piperidin-4-yl)methyl)piperazin-1-yl)-2-(3-methyl-4-((2,3,4,5-tetrafluoro-6-methoxybenzamido)methyl)phenyl)-9,10-dihydro-4H-benzo[d]pyrazolo[1,5-a][1,3]diazepine-3-carboxamide] | 6.01
5 | 1.46 | Cc1cc(-c2nn3c(c2C(N)=O)Nc2ccc(N4CCN(CC5CCN(c6ccc(N7CCC(=O)NC7=O)cc6)CC5)CC4)cc2CC3)ccc1C(=O)Nc1cc(C(F)(F)F)ccn1 [Example B5, 7-(4-((1-(4-(2,4-dioxotetrahydropyrimidin-1(2H)-yl)phenyl)piperidin-4-yl)methyl)piperazin-1-yl)-2-(3-methyl-4-((4-(trifluoromethyl)pyridin-2-yl)carbamoyl)phenyl)-9,10-dihydro-4H-benzo[d]pyrazolo[1,5-a][1,3]diazepine-3-carboxamide] | < 5.00
6 | 0.543 | Cc1ccnc(NC(=O)c2ccc(-c3nn4c(c3C(N)=O)Nc3ccc(N5CCN(CC6CCN(c7ccc(N8CCC(=O)NC8=O)cc7)CC6)CC5)cc3CC4)c(F)c2C)n1 [Example B43, 7-(4-((1-(4-(2,4-dioxotetrahydropyrimidin-1(2H)-yl)phenyl)piperidin-4-yl)methyl)piperazin-1-yl)-2-(2-fluoro-3-methyl-4-((4-methylpyrimidin-2-yl)carbamoyl)phenyl)-9,10-dihydro-4H-benzo[d]pyrazolo[1,5-a][1,3]diazepine-3-carboxamide] | < 5.00
7 | 6.03 | NC(=O)c1c(-c2ccc(Oc3ccccc3)cc2)nn2c1Nc1cc(C3CCN(CCCOc4ccc(NC5CCC(=O)NC5=O)cc4)CC3)ccc1CC2 (centres unmarked) [Example A32, 6-(1-(3-(4-((2,6-dioxopiperidin-3-yl)amino)phenoxy)propyl)piperidin-4-yl)-2-(4-phenoxyphenyl)-9,10-dihydro-4H-benzo[d]pyrazolo[1,5-a] [1,3]diazepine-3-carboxamide] | 6.38
8 | 1.1 | Cc1c(C(=O)Nc2cscn2)ccc(-c2nn3c(c2C(N)=O)Nc2ccc(N4CCN(CC5CCN(c6ccc(CN7CCC(=O)NC7=O)cc6)CC5)CC4)cc2CC3)c1F [Example B98, 7-(4-((1-(4-((2,4-dioxotetrahydropyrimidin-1(2H)-yl)methyl)phenyl)piperidin-4-yl)methyl)piperazin-1-yl)-2-(2-fluoro-3-methyl-4-(thiazol-4-ylcarbamoyl)phenyl)-9,10-dihydro-4H-benzo[d]pyrazolo[1,5-a][1,3]diazepine-3-carboxamide] | < 5.00
9 | 1.78 | Cc1cccc(NC(=O)c2ccc(-c3nn4c(c3C(N)=O)Nc3ccc(N5CCN(C6CN(C7CN(c8ccc(C9CCC(=O)NC9=O)cc8)C7)C6)CC5)cc3CC4)c(F)c2C)n1 (centres unmarked) [Example B65, 7-(4-(1′-(4-(2,6-dioxopiperidin-3-yl)phenyl)-[1,3′-biazetidin]-3-yl)piperazin-1-yl)-2-(2-fluoro-3-methyl-4-((6-methylpyridin-2-yl)carbamoyl)phenyl)-9,10-dihydro-4H-benzo[d]pyrazol[1,5-a][1,3]diazepine-carboxamide] | 7.01
10 | 0.849 | COc1cc(C(=O)Nc2cc(C(F)(F)F)ccn2)ccc1-c1nn2c(c1C(N)=O)Nc1ccc(N3CCN(CC4CCN(c5ccc(N6CCC(=O)NC6=O)cc5)CC4)CC3)cc1CC2 [Example B27, 7-(4-((1-(4-(2,4-dioxotetrahydropyrimidin-1(2H)-yl)phenyl)piperidin-4-yl)methyl)piperazin-1-yl)-2-(2-methoxy-4-((4-(trifluoromethyl)pyridin-2-yl)carbamoyl)phenyl)-9,10-dihydro-4H-benzo[d]pyrazolo[1,5-a][1,3]diazepine-3-carboxamide] | < 5.00
11 | 3.91 | COc1ncccc1C(=O)NCc1ccc(-c2nn3c(c2C(N)=O)Nc2ccc(N4CCN(CC5CCN(c6ccc(N7CCC(=O)NC7=O)cc6)CC5)CC4)cc2CC3)cc1C [Example C34, 7-(4-((1-(4-(2,4-dioxotetrahydropyrimidin-1(2H)-yl)phenyl)piperidin-4-yl)methyl)piperazin-1-yl)-2-(4-((2-methoxynicotinamido)methyl)-3-methylphenyl)-9,10-dihydro-4H-benzo[d]pyrazolo[1,5-a][1,3]diazepine-3-carboxamide] | < 5.00
12 | 5.82 | NC(=O)c1c(-c2ccc(C(=O)Nc3cc(C(F)(F)F)ccn3)cc2)nn2c1Nc1ccc(N3CCN(CC4CCN(c5ccc(N6CCC(=O)NC6=O)cc5)CC4)CC3)cc1CC2 [Example B12, 7-(4-((1-(4-(2,4-dioxotetrahydropyrimidin-1(2H)-yl)phenyl)piperidin-4-yl)methyl)piperazin-1-yl)-2-(4-((4-(trifluoromethyl)pyridin-2-yl)carbamoyl)phenyl)-9,10-dihydro-4H-benzo[d]pyrazolo[1,5-a][1,3]diazepine-3-carboxamide] | < 5.00

Row | SMILES | DC50 (BTK) [nM] | pIC50 (HEK-293 cells)
13 | Cc1cccc(NC(=O)c2ccc(-c3nn4c(c3C(N)=O)Nc3ccc(N5CCN(CC6CCN(c7cc8c(cc7F)C(=O)N(C7CCC(=O)NC7=O)C8=O)CC6)CC5)cc3CC4)c(F)c2C)n1 (centres unmarked) [Example B55, 7-(4-((1-(2-(2,6-dioxopiperidin-3-yl)-6-fluoro-1,3-dioxoisoindolin-5-yl)piperidin-4-yl)methyl)piperazin-1-yl)-2-(2-fluoro-3-methyl-4-((6-methylpyridin-2-yl)carbamoyl)phenyl)-9,10-dihydro-4H-benzo[d]pyrazolo[1,5-a][1,3]diazepine-3-carboxamide] | 2.42 | < 5.00
